According to patent US20110209228A1, “METHOD OF TREATMENT USING ANTIMICROBIAL COMPOSITION” (priority 2008, published 2011):
Ends that are not written are not given here.

Columns and labels:
E. coli DH5α = assay: microbroth dilution method, peptide and antibiotic combination; assay type: cell-based; settings: for synergy with antibiotics (in words): tetracycline or chloramphenicol
Method: To determine whether or not antimicrobial peptides as described herein act in a synergistic manner with antibiotic compounds, a microbroth dilution method was performed against E. coli DH5α performed according to the guidelines of the National Committee for Clinical Laboratory Standards.

lactobacilli = assay: activity against lactobacilli (dairy starter culture); assay type: cell-based; settings: dairy starter culture comprising lactobacilli
Text: In separate experiments, the peptide AGG01 (SEQ ID NO: 7) or AG002 (SEQ ID NO: 8) is shown to be suitable for use in a dairy starter culture comprising lactobacilli, especially one or more Lactis spp., in particular one or more organisms selected individually or collectively from the group consisting of: L. helveticus, L. acidophilus, L. lactis, L. bugaricus and L. citrovorum, and especially L. acidophilus.

[1] = bioactivity of peptides in milk; settings: 200 μg/ml, 37° C., 30 or 60 min, data not shown
milk proteases = assay: Western blotting of CHO cell extracts incubated in bovine milk; settings: CHO cell extract, 2 hr
Method: Western blotting of cell lysates was performed according to standard procedures to confirm expression of peptides in mammalian cells. Briefly, cell extracts and culture supernatants were obtained from CHO cells transfected with the vectors pCMV-SPORT6-AGG01 and pCMV-SPORT6-AGG02, resolved in 18% (w/v) SDS/polyacrylamide electrophoresis gels, transferred by electroblotting onto nitrocellulose membrane and either stained in Ponceau S or probed with polyclonal antisera. In a further example, cell extracts were incubated in bovine milk for 2 hrs prior to their preparation for electrophoresis, to determine stability in milk. Control samples comprises non-transfected CHO cell extracts and supernatants. Membranes were developed using polyclonal rabbit anti-mAGG01 serum that had been produced according to standard procedures, by immunizing rabbits with synthetic peptide (i.e., SEQ ID NO: 7).

S. uberis = settings: both high and low salt concentrations
[2] = system: Staphylococcus aureus (ATCC 25923)
[3] = system: Streptococcus agalactiae (ATCC 12927)
[4] = system: Candida albicans (ATCC 753)
[5] = system: all microorganisms tested; settings: for antimicrobial activity against pathogens that cause mastitis (in words): S. uberis, E. coli, S. aureus and S. agalactiae
S. aureus = settings: for activity against isolates (in words): S. aureus otitis externa isolates
S. schleiferi = settings: for activity against isolates (in words): S. schleiferi otitis externa isolates
S. epidermis = settings: for activity against isolates (in words): S. epidermis otitis externa isolates
S. pseudointermedin = settings: for activity against isolates (in words): S. pseudointermedin otitis externa isolates
Pseudomonas aeruginosa = settings: for activity against isolates (in words): Pseudomonas aeruginosa otitis externa isolates
[6] = heat resistance of antimicrobial peptides; settings: 200 μg/ml; for antimicrobial bioactivity in phosphate buffer following heat treatment (in words): 10 mM phosphate buffer, up to 56° C. 30 min or 70° C. 15 min; for bioactivity in pasteurized milk following heat treatment (in words): pasteurised milk, up to 68° C. 30 min or 71.7° C. 20 sec, data not shown
[7] = system: Salmonella choleraesuis (ATCC 14028)
[8] = system: Streptococcus equi equi (ATCC 9527)
E. coli TOP10 = assay: growth inhibition screen by expression of the peptide in host bacteria (pBAD/gIIIA, L-arabinose induction, OD600); assay type: cell-based; settings: E. coli TOP10, OD600 before and 4 hours after L-arabinose induction
[9] = antibiotic alone (—), E. coli DH5α
[10] = in combination with SEQ ID NO: 7, E. coli DH5α
[11] = in combination with SEQ ID NO: 8, E. coli DH5α

`CC1(C)S[C@@H]2[C@H](NC(=O)[C@H](N)c3ccccc3)C(=O)N2[C@H]1C(=O)O` [Ampicillin] gave an MIC of antibiotic (E. coli DH5α; [9]) of 2 µg/mL, an MIC of antibiotic (E. coli DH5α; [10]) of 2 µg/mL and an MIC of antibiotic (E. coli DH5α; [11]) of 4 µg/mL.

`CN(C)[C@@H]1C(O)=C(C(N)=O)C(=O)[C@@]2(O)C(O)=C3C(=O)c4c(O)cccc4[C@@](C)(O)[C@H]3C[C@@H]12` [Tetracycline] gave an MIC of antibiotic (E. coli DH5α; [9]) of 2 µg/mL, an MIC of antibiotic (E. coli DH5α; [10]) of 0.25 µg/mL and an MIC of antibiotic (E. coli DH5α; [11]) of 0.5 µg/mL.

Work on `O=C(N[C@H](CO)[C@H](O)c1ccc([N+](=O)[O-])cc1)C(Cl)Cl` [Chloramphenicol] yielded an MIC of antibiotic (E. coli DH5α; [9]) of 4 µg/mL, an MIC of antibiotic (E. coli DH5α; [10]) of 1 µg/mL and an MIC of antibiotic (E. coli DH5α; [11]) of 2 µg/mL.

For “KRGFGKKLRKRLKKFRNSIKKRLKNFNVVIPIPLP-NH2 [SEQ ID NO: 7]”, the “activity against lactobacilli (in words)” value (lactobacilli) was “low activity against lactobacilli”, the “antimicrobial bioactivity in fresh milk (in words)” value [1] was “retained” and the “antimicrobial bioactivity in pasteurized milk (in words)” value [1] was “slightly reduced”. The “presence of peptide following incubation with bovine milk (Western blot, in words)” value (milk proteases) was “present”, the “synergy with antibiotics (in words)” value (E. coli DH5α; E. coli DH5α) was “act synergistically” and the “inhibiting growth of and/or killing S. uberis (in words)” value (S. uberis) was “capable of inhibiting growth of and/or killing S. uberis”. It also gave an MIC [2] of 5.72 ± 0.37 µg/mL, an MIC [3] of 3.81 µg/mL and an MIC [4] of 5.48 ± 0.16 µg/mL. For the same molecule, the “antimicrobial activity against pathogens that cause mastitis (in words)” value [5] was “exhibited antimicrobial activity”, the “MIC, active against all microorganisms tested” value ([5]; summary of Table 1) was “less than 10 μg/ml” and the MIC (E. coli) was 1 to 8 µg/mL. For the same molecule, the “activity against isolates (in words)” value (E. coli; E. coli BRD/SRD isolates) was “especially strong activity”, the MIC (P. haemolytica) was 1 to 16 µg/mL and the “activity against isolates (in words)” value (P. haemolytica; P. haemolytica BRD/SRD isolates) was “possibly also against P. haemolytica”. The MIC (P. multicoda) was 16 µg/mL, the MIC (B. bronchiseptica) was 1 to 2 µg/mL and the “activity against isolates (in words)” value (B. bronchiseptica; B. bronchiseptica BRD/SRD isolates) was “especially strong activity”. For the same molecule, the MIC (H. somnus) was 16 µg/mL, the “activity against isolates (in words)” value (H. somnus; H. somnus BRD/SRD isolates) was “weaker activity” and the MIC (A. pleuropneumoniae) was 8 µg/mL. For the same molecule, the “activity against isolates (in words)” value (A. pleuropneumoniae; A. pleuropneumoniae BRD/SRD isolates) was “Intermediate activity”, the MIC (S. suis) was 16 to 32 µg/mL and the “activity against isolates (in words)” value (S. suis; S. suis BRD/SRD isolates) was “weaker activity”. For the same molecule, the MIC (S. choleraesuis) was 4 to 8 µg/mL, the MIC (S. aureus) was 2 µg/mL and the “activity against isolates (in words)” value (S. aureus) was “especially strong activity”. For the same molecule, the MIC (S. schleiferi) was 2 to 4 µg/mL, the “activity against isolates (in words)” value (S. schleiferi) was “especially strong activity” and the MIC (S. epidermis) was 1 µg/mL. The “activity against isolates (in words)” value (S. epidermis) was “especially strong activity”, the MIC (S. pseudointermedin) was 1 to 2 µg/mL and the “activity against isolates (in words)” value (S. pseudointermedin) was “especially strong activity”. For the same molecule, the MIC (Pseudomonas aeruginosa) was 2 to 4 µg/mL, the “activity against isolates (in words)” value (Pseudomonas aeruginosa) was “Strong antimicrobial activity” and the “antimicrobial bioactivity in phosphate buffer following heat treatment (in words)” value [6] was “retain their antimicrobial bioactivity”. The “bioactivity in pasteurized milk following heat treatment (in words)” value [6] was “active in pasteurized milk, even following heat treatment”.

With “KRGLWESLKRKATKLGDDIRNTLRNFKIKFPVPRQ-NH2 [SEQ ID NO: 8]” the “activity against lactobacilli (in words)” value (lactobacilli) was “low activity against lactobacilli”, the “antimicrobial bioactivity in fresh milk (in words)” value [1] was “reduced or inhibited” and the “antimicrobial bioactivity in pasteurized milk (in words)” value [1] was “reduced or inhibited”. For the same molecule, the “synergy with antibiotics (in words)” value (E. coli DH5α; E. coli DH5α) was “act synergistically”, the MIC [7] was 9.32 ± 0.38 µg/mL and the MIC [2] was 5.44 ± 0.49 µg/mL. For the same molecule, the MIC [8] was 4.85 ± 0.35 µg/mL, the MIC [3] was 1.2 µg/mL and the MIC [4] was 10.01 ± 0.47 µg/mL. For the same molecule, the “antimicrobial activity against pathogens that cause mastitis (in words)” value [5] was “has antimicrobial activity”, the MIC (E. coli) was 8 to 32 µg/mL and the MIC (P. haemolytica) was 4 to 64 µg/mL. The MIC (P. multicoda) was 8 to 32 µg/mL, the MIC (B. bronchiseptica) was 32 µg/mL and the MIC (H. somnus) was 32 µg/mL. The MIC (A. pleuropneumoniae) was 16 µg/mL, the MIC (S. suis) was 4 to 8 µg/mL and the MIC (S. choleraesuis) was over 64 µg/mL. The MIC (S. aureus) was 4 µg/mL, the “activity against isolates (in words)” value (S. aureus) was “especially strong activity” and the MIC (S. schleiferi) was 2 to 4 µg/mL. The “activity against isolates (in words)” value (S. schleiferi) was “especially strong activity”, the MIC (S. epidermis) was 2 µg/mL and the “activity against isolates (in words)” value (S. epidermis) was “especially strong activity”. For the same molecule, the MIC (S. pseudointermedin) was 1 µg/mL, the “activity against isolates (in words)” value (S. pseudointermedin) was “especially strong activity” and the MIC (Pseudomonas aeruginosa) was 8 to 32 µg/mL. The “activity against isolates (in words)” value (Pseudomonas aeruginosa) was “slightly weaker activity”, the “antimicrobial bioactivity in phosphate buffer following heat treatment (in words)” value [6] was “retain their antimicrobial bioactivity” and the “bioactivity in pasteurized milk following heat treatment (in words)” value [6] was “reduced or inhibited”.

B1: 27: antimicrobial peptide produced by mutagenesis based on SEQ ID NO: 7 and/or 8 (peptide)
chain 1: MVLRGFLKRFGGKILRNRGRDGATLKDFLKMIATRIPH
chain 2: MVKRGFGKRLRRKATKLGMILRRH
modifications: Antimicrobial peptide F6; Antimicrobial peptide 27
For B1, the “antimicrobial activity: inhibiting bacterial growth and/or killing bacteria on expression (in words)” value (E. coli TOP10) was “having antimicrobial activity”.

B2: B6: peptide by mutagenesis based on a consensus sequence for antimicrobial C-terminal fragments of cathelicidin proteins (peptide)
chain: MVGIVSGEFRGSFEKCVGGIDKSLGILRLSWDLVLRGILRLSWDLVLRGSSRSAAGTIWEFEAF
modifications: Antimicrobial peptide B6
For B2, the “antimicrobial activity: inhibiting bacterial growth and/or killing bacteria on expression (in words)” value (E. coli TOP10) was “having antimicrobial activity”.
